Numbers after ± are expanded uncertainties.
Experiment: molar heat capacity at constant pressure
Conditions: 101.33 kPa, Vacuum adiabatic calorimetry

CC(C)(C)Cc1ccccc1 [(2,2-dimethylpropyl)benzene]
molar heat capacity at constant pressure [J/K/mol]
Conditions	Crystal	Liquid
5 K	0.3584 ± 0.017	–
6.43 K	0.79 ± 0.02	–
6.83 K	0.95 ± 0.02	–
7.1 K	1.05 ± 0.02	–
7.5 K	1.2 ± 0.02	–
7.91 K	1.41 ± 0.02	–
8.27 K	1.62 ± 0.03	–
8.57 K	1.81 ± 0.03	–
8.9 K	2.04 ± 0.03	–
9.24 K	2.3 ± 0.03	–
9.58 K	2.54 ± 0.03	–
9.91 K	2.77 ± 0.04	–
10 K	2.835 ± 0.036	–
10.24 K	3 ± 0.04	–
10.55 K	3.28 ± 0.04	–
10.86 K	3.54 ± 0.04	–
11.15 K	3.76 ± 0.04	–
11.45 K	4.08 ± 0.05	–
11.74 K	4.36 ± 0.05	–
12.04 K	4.69 ± 0.05	–
12.51 K	5.2 ± 0.05	–
13.17 K	6 ± 0.06	–
13.78 K	6.68 ± 0.06	–
14.4 K	7.42 ± 0.07	–
14.99 K	8.11 ± 0.07	–
15 K	8.156 ± 0.069	–
15.59 K	8.88 ± 0.07	–
16.17 K	9.65 ± 0.08	–
16.76 K	10.42 ± 0.08	–
17.35 K	11.18 ± 0.08	–
18.02 K	12.15 ± 0.09	–
18.82 K	13.47 ± 0.09	–
19.44 K	14.45 ± 0.1	–
20 K	15.37 ± 0.1	–
20.07 K	15.49 ± 0.1	–
20.87 K	16.75 ± 0.11	–
21.6 K	17.96 ± 0.11	–
22.31 K	19.18 ± 0.11	–
22.92 K	20.15 ± 0.11	–
23.68 K	21.34 ± 0.12	–
24.39 K	22.44 ± 0.12	–
25 K	23.31 ± 0.12	–
25.18 K	23.58 ± 0.12	–
25.93 K	24.66 ± 0.12	–
26.71 K	25.76 ± 0.12	–
27.52 K	26.89 ± 0.12	–
28.33 K	28.13 ± 0.12	–
29.16 K	29.24 ± 0.12	–
30 K	30.36 ± 0.1	–
30.01 K	30.42 ± 0.1	–
30.87 K	31.42 ± 0.11	–
31.75 K	32.74 ± 0.11	–
32.64 K	33.75 ± 0.11	–
33.41 K	34.7 ± 0.11	–
34.46 K	36.13 ± 0.12	–
35 K	36.76 ± 0.12	–
35.4 K	37.3 ± 0.12	–
36.35 K	38.43 ± 0.12	–
37.32 K	39.67 ± 0.12	–
38.31 K	40.94 ± 0.12	–
39.3 K	41.89 ± 0.13	–
40 K	42.83 ± 0.13	–
40.33 K	43.02 ± 0.13	–
41.36 K	44.25 ± 0.13	–
42.4 K	45.57 ± 0.13	–
43.47 K	46.7 ± 0.14	–
44.54 K	47.93 ± 0.14	–
45 K	48.21 ± 0.14	–
45.63 K	48.9 ± 0.14	–
46.73 K	49.79 ± 0.14	–
47.83 K	50.85 ± 0.14	–
48.96 K	51.7 ± 0.14	–
50 K	52.68 ± 0.15	–
50.08 K	52.7 ± 0.15	–
51.22 K	53.77 ± 0.15	–
52.37 K	54.62 ± 0.15	–
53.54 K	55.66 ± 0.15	–
54.59 K	56.42 ± 0.15	–
56 K	57.64 ± 0.16	–
57.09 K	58.58 ± 0.16	–
58.29 K	59.72 ± 0.16	–
59.5 K	60.71 ± 0.16	–
60 K	61.21 ± 0.16	–
60.59 K	61.7 ± 0.16	–
61.93 K	63.06 ± 0.17	–
63.16 K	64.15 ± 0.17	–
64.57 K	65.26 ± 0.17	–
65.64 K	66.12 ± 0.17	–
66.89 K	67.2 ± 0.18	–
68.15 K	68 ± 0.18	–
69.4 K	69.06 ± 0.18	–
70 K	69.54 ± 0.18	–
70.99 K	70.19 ± 0.18	–
72.9 K	71.7 ± 0.18	–
74.83 K	72.92 ± 0.19	–
76.87 K	74.43 ± 0.19	–
78.7 K	75.75 ± 0.19	–
79.98 K	76.76 ± 0.19	–
80 K	76.67 ± 0.19	–
80.65 K	77.08 ± 0.19	–
81.93 K	78.1 ± 0.2	–
82.61 K	78.8 ± 0.2	–
83.87 K	79.5 ± 0.2	–
84.58 K	80.15 ± 0.2	–
85.81 K	80.93 ± 0.2	–
86.55 K	81.42 ± 0.2	–
87.75 K	82.4 ± 0.21	–
88.51 K	82.92 ± 0.21	–
89.69 K	83.89 ± 0.21	–
90 K	84.14 ± 0.28	–
90.49 K	84.64 ± 0.29	–
91.64 K	85.39 ± 0.29	–
92.48 K	86.14 ± 0.29	–
93.59 K	86.97 ± 0.29	–
95.54 K	88.3 ± 0.29	–
97.5 K	89.8 ± 0.29	–
99.45 K	91.29 ± 0.29	–
100 K	91.54 ± 0.29	–
101.41 K	92.54 ± 0.29	–
103.37 K	94.12 ± 0.29	–
105.32 K	95.53 ± 0.3	–
107.28 K	97.03 ± 0.3	–
109.23 K	98.11 ± 0.3	–
110 K	98.78 ± 0.3	–
111.18 K	99.61 ± 0.3	–
113.14 K	100.85 ± 0.3	–
115.09 K	102.6 ± 0.3	–
117.46 K	104.26 ± 0.3	–
119.37 K	105.34 ± 0.31	–
120 K	105.9 ± 0.3	–
121.31 K	106.92 ± 0.31	–
123.26 K	108 ± 0.31	–
125.2 K	109.67 ± 0.31	–
127.13 K	110.75 ± 0.31	–
129.07 K	111.99 ± 0.31	–
130 K	112.8 ± 0.3	–
131 K	113.49 ± 0.31	–
132.93 K	115.07 ± 0.32	–
134.85 K	116.15 ± 0.32	–
136.78 K	117.4 ± 0.32	–
138.7 K	118.65 ± 0.32	–
140 K	119.7 ± 0.3	–
140.61 K	120.14 ± 0.32	–
142.53 K	121.39 ± 0.32	–
144.43 K	122.97 ± 0.32	–
146.34 K	124.22 ± 0.32	–
148.22 K	125.63 ± 0.33	–
150 K	126.5 ± 0.3	–
150.12 K	126.88 ± 0.33	–
152.5 K	128.37 ± 0.33	–
155.37 K	130.04 ± 0.33	–
158.24 K	132.28 ± 0.33	–
160 K	133.4 ± 0.3	–
161.11 K	134.11 ± 0.33	–
163.99 K	135.94 ± 0.34	–
166.87 K	138.27 ± 0.34	–
169.76 K	140.35 ± 0.34	–
170 K	140.3 ± 0.3	–
172.66 K	141.93 ± 0.34	–
175.55 K	144.34 ± 0.34	–
178.45 K	146.25 ± 0.35	–
180 K	147.4 ± 0.4	–
181.36 K	148.33 ± 0.35	–
184.27 K	150.32 ± 0.35	–
187.18 K	152.57 ± 0.35	–
190 K	154.6 ± 0.4	–
190.11 K	154.9 ± 0.36	–
194.33 K	157.56 ± 0.36	–
197.18 K	160.05 ± 0.36	–
200 K	162 ± 0.4	–
200.37 K	162.3 ± 0.36	–
203.56 K	164.63 ± 0.36	–
206.46 K	166.79 ± 0.37	–
209.27 K	168.78 ± 0.37	–
210 K	169.1 ± 0.4	–
212.11 K	170.36 ± 0.37	–
215.02 K	172.52 ± 0.37	–
217.92 K	174.27 ± 0.37	–
220 K	175.9 ± 0.4	–
220.82 K	176.51 ± 0.38	–
223.7 K	178.18 ± 0.38	–
226.59 K	180.26 ± 0.38	–
229.46 K	182.33 ± 0.38	–
230 K	182.6 ± 0.4	–
232.33 K	184.33 ± 0.38	–
235.2 K	186.58 ± 0.39	–
238.05 K	188.32 ± 0.39	–
239.91 K	189.73 ± 0.39	–
240 K	189.4 ± 0.4	–
240.89 K	190.48 ± 0.39	–
240.92 K	190.57 ± 0.39	–
241.92 K	190.98 ± 0.39	–
242.92 K	191.9 ± 0.39	–
243.72 K	192.4 ± 0.39	–
243.92 K	192.73 ± 0.39	–
244.93 K	193.73 ± 0.39	–
246 K	195.64 ± 0.41	–
246.56 K	197.88 ± 0.4	–
246.6 K	202.12 ± 0.4	–
247.1 K	197.38 ± 0.4	–
248.19 K	200.88 ± 0.41	–
249.28 K	206.03 ± 0.42	–
249.34 K	207.61 ± 0.42	–
250 K	196.1 ± 0.4	–
250.36 K	213.26 ± 0.44	–
251.42 K	222.66 ± 2	–
252.01 K	245.27 ± 0.69	–
252.39 K	417.05 ± 1.1	–
252.46 K	249.27 ± 1	–
253.4 K	315.03 ± 3.3	–
254.15 K	685.44 ± 34	–
254.18 K	538.11 ± 34	–
254.69 K	1232.2 ± 620	–
254.95 K	2919.2 ± 560	–
255.01 K	4462.3 ± 540	–
255.06 K	8092.4 ± 530	–
255.09 K	5555.7 ± 500	–
255.17 K	8555.5 ± 160	–
255.21 K	9885.8 ± 180	–
255.43 K	199.7 ± 0.4	249.6 ± 0.5
256.43 K	–	250.01 ± 19
257.37 K	–	252.18 ± 0.45
257.44 K	–	250.6 ± 0.45
258.44 K	–	251.09 ± 0.45
258.78 K	–	252.09 ± 0.45
259.45 K	–	251.68 ± 0.45
260 K	–	252 ± 0.5
260.46 K	–	252.26 ± 0.45
261.48 K	–	252.92 ± 0.45
262.48 K	–	253.42 ± 0.45
263.49 K	–	254 ± 0.45
264.48 K	–	254.59 ± 0.45
264.99 K	–	254.92 ± 0.46
265.49 K	–	255.09 ± 0.46
266.49 K	–	255.67 ± 0.46
267.49 K	–	256 ± 0.46
268.67 K	–	256.58 ± 0.46
270 K	–	257.2 ± 0.5
271.15 K	–	257.83 ± 0.46
277.28 K	–	260.82 ± 0.46
280 K	–	262.5 ± 0.5
283.39 K	–	264.31 ± 0.46
289.47 K	–	267.64 ± 0.47
290 K	–	268 ± 0.5
295.52 K	–	270.8 ± 0.47
298.15 K	–	271.9 ± 0.5
300 K	–	272.6 ± 0.5
300.23 K	–	272.71 ± 0.47
300.79 K	–	273.13 ± 0.47
301.54 K	–	273.46 ± 0.47
304.11 K	–	274.29 ± 0.47
304.68 K	–	274.54 ± 0.47
307.54 K	–	275.37 ± 0.48
307.98 K	–	275.62 ± 0.48
308.57 K	–	275.71 ± 0.48
310 K	–	276.3 ± 0.5
311.84 K	–	276.95 ± 0.48
312.43 K	–	277.2 ± 0.48
313.51 K	–	277.62 ± 0.48
315.67 K	–	278.2 ± 0.48
316.31 K	–	278.53 ± 0.48
319.32 K	–	279.36 ± 0.48
319.51 K	–	279.86 ± 0.48
320 K	–	279.8 ± 0.5
320.02 K	–	279.95 ± 0.48
323.33 K	–	281.36 ± 0.48
323.89 K	–	281.44 ± 0.48
325.26 K	–	281.86 ± 0.48
327.15 K	–	283.02 ± 0.48
327.74 K	–	283.02 ± 0.48
330 K	–	284.4 ± 0.5
330.95 K	–	285.27 ± 0.49
331.19 K	–	285.18 ± 0.49
331.59 K	–	285.27 ± 0.49
334.56 K	–	287.35 ± 0.49
335.41 K	–	288.01 ± 0.49
337.07 K	–	289.09 ± 0.49
338.32 K	–	289.92 ± 0.49
339.23 K	–	290.51 ± 0.49
340 K	–	290.8 ± 0.5
342.07 K	–	292.33 ± 0.49
342.92 K	–	292.67 ± 0.49
343.02 K	–	292.75 ± 0.49
345.8 K	–	294.83 ± 0.5
346.79 K	–	295.24 ± 0.5
348.74 K	–	295.99 ± 0.5
349.52 K	–	296.82 ± 0.5
350 K	–	297 ± 0.5
350.54 K	–	297.49 ± 0.5

Reference: the NIST ThermoML archive (doi:10.1016/j.jct.2011.12.010)
